Target: T1, HA-E297A CaSR mutant (Rattus norvegicus, UniProt P48442, E297A)
T1 construct: mGluR5 signal peptide (N); expressed in transfected cells; host or cells: HEK293T
T1 sequence (P48442 20-1079 E297A): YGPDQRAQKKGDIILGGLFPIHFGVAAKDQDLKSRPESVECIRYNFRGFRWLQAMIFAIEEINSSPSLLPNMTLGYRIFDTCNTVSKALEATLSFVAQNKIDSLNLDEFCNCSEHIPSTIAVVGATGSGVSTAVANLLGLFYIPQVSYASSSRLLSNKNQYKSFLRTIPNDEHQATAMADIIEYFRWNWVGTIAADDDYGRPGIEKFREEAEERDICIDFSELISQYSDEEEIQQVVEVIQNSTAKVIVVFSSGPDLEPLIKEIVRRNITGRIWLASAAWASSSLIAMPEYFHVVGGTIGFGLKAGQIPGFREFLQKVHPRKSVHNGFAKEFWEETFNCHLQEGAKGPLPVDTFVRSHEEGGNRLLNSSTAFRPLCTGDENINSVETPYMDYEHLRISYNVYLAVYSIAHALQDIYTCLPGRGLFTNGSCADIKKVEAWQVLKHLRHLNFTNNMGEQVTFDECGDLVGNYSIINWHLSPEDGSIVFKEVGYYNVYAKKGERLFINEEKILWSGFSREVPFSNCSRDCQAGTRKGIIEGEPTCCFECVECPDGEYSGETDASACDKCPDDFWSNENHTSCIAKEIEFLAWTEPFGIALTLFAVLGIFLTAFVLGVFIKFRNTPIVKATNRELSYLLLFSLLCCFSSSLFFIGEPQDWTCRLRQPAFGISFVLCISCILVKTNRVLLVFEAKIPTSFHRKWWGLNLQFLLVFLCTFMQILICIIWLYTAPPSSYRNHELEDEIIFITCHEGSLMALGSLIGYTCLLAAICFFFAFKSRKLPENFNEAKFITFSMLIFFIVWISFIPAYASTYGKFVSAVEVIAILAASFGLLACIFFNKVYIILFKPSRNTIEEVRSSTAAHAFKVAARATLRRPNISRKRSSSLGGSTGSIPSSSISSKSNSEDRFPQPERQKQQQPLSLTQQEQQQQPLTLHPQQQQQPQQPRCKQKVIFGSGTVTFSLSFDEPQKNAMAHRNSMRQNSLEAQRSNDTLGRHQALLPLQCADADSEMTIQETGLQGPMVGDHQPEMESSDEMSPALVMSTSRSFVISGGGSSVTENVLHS
Assay: IP-One assay, HEK293T transiently transfected
Assay type: cell-based

[Ca+2] [Ca^2+]
EC50 (Ca^2+ alone): 7.36 mM
Hill coefficient ± S.E.M. (Ca^2+ alone): 3.01 ± 0.07
Max ± S.E.M. (normalized to maximum response of WT CaSR): 130 ± 25%
